Read-outs that look alike come from different tables or passages of the source.
Assays:
[1] = target: T1, recombinant human AKR1C3 (Homo sapiens, UniProt P42330); experiment: Kinetics assay: metabolism of prodrugs by recombinant human AKR1C3; assay type: biochemical; settings: NADPH, pH 7.4, 37° C.
T1 construct: His6 (hexahistidine) (C); made in house; host or cells: E. coli BL21(DE3)
T1 sequence (P42330 1-323): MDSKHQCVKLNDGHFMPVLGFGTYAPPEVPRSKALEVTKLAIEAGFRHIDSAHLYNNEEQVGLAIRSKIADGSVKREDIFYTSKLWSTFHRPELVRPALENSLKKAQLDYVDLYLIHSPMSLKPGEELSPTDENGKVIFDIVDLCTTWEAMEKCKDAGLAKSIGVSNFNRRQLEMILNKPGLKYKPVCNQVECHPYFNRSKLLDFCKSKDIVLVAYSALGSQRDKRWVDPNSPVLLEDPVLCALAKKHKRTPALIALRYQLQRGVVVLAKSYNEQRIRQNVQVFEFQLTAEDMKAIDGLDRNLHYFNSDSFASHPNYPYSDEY
Method: E. coli BL21(DE3) cells expressing the pET22b-AKR1C3 construct with a C-terminal hexahistidine (His6) tag and constitutive promoter was generated. Colonies of these transformed E. coli cells were grown in LB agar medium containing 100 μg/mL of ampicillin. A single colony was picked the following day and grown in 400 mL batches of bacterial medium containing ampicillin (100 μg/mL) at 37° C., with continuous shaking at 200 rpm overnight. Bacterial cultures were pelleted by centrifugation (4000×g, 15 minutes) and resuspended in lysis buffer (10 mL/400 mL culture). The cells were disrupted by sonication (Sonicator 3000, Misonix) and centrifuged at 14,000 rpm for 30 minutes (at 4° C.). The cleared lysate was filtered in successive filters containing pore sizes of 1.20 μm, 0.8 μm and 0.2 μm and loaded onto a nickel-agarose affinity chromatography column on an ÄKTA Purifier system. The column was washed with 20 mL of the lysis buffer and the His6-tagged AKR1C3 protein was eluted with lysis buffer supplemented with 500 mM imidazole. The protein was further purified by a liquid chromatography gel filtration column (Superdex 200 HR16/60) using lysis buffer (supplemented with 5% v/v glycerol) and 1 mM DTT (pH 7.0) at a flow rate of 0.3 mL/min. Protein was monitored by absorbance at 280 nm, and purity of the fractions (1 mL) was assessed by SDS-PAGE. Active fractions containing the purified protein were pooled and concentrated by centrifugation (3,000×g, 4° C.) on a Vivaspin concentrator (MWCO 10,000 cutoff; GE Healthcare). The protein containing solution was supplemented with glycerol (to a final concentration of 15%, v/v) and NADP^+ was added to a final concentration of 2 mM.
Kinetic parameters of compounds of the invention were determined in a 96-well plate format. The 100 mM potassium phosphate buffer used in this assay was made with the following reagents to a pH of 7.4: • 0.5 M K2HPO4— 8.2 mL • 0.5 M KH2PO4— 1.8 mL • BSApowder—25 mg • Milli Q water—40 mL
For the assay, 2 μL of varying substrate concentrations were incubated with 94 μL of the potassium phosphate buffer and 2 μL of 5 mM NADPH for 5 minutes in the pre-warmed (37° C.) plate chamber of a Molecular Devices SpectraMax M2 plate reader. Purified AKR1C3 enzyme (2 μL) was added to a final concentration of […] in each well using an Eppendorf electronic multi-channel pipette. Absorbance measurements were recorded immediately upon addition of enzyme over a period of 5 minutes at a wavelength of 400 nm. Absorbance changes for each compound concentration were plotted against time to obtain the rate of absorbance change over the 5 minute period. The rate of absorbance change was then plotted against the compound concentration and non-linear regression analysis and Michaelis-Menten curve fitting performed on GraphPadPrism (version 5.00 for Windows, GraphPad Software, San Diego Calif. USA) in order to determine kinetic parameters of compounds.

[2] = system: wild-type H460 lung cancer cells; experiment: Anti-proliferative IC50 assay, wild-type H460; assay type: cell-based, human; settings: for IC50: Homo sapiens
Method: Four hundred cells were seeded in a volume of 100 μL in each well of a 96-well plate. The cells were left in a humidified incubator (37° C., 5% CO2) for 2 hours in order to enable attachment to the surface of the wells prior to compound addition. All compounds were prepared as stocks in DMSO and stored at −80° C. Frozen stocks of compounds were thawed immediately prior to addition to cells. Working solutions of each compound were made in α-MEM+5% FBS (v/v) at 3 times the required final concentration for the top well. The final concentration of DMSO in the α-MEM solution was ensured to not exceed 1% of the total volume. 50 μL of the working solution was added to the top wells (in duplicates) and gently mixed. The solubility of some compounds precluded the working solution in α-MEM to be 3 times the desired top well concentration. […] A 3-fold serial dilution was carried out along the plate starting from the top well. The first column of wells on the plate served as blanks (containing α-MEM+FBS) and the second column served as control wells (containing cells with no compound added). Following compound addition, the plates were incubated for 4 hours in a humidified incubator (37° C., 5% CO2).
Following the 4 hour compound exposure, the 96-well plates were washed three times by aspirating media with an Immuno Washer (Nunc) and each well replaced with 150 μL of α-MEM+5% (v/v) FBS+1% (v/v) P/S. The plates were left in a humidified incubator (37° C., 5% CO2) for 5 days to enable cell growth. The cells in 96-well plates were fixed 5 days after compound exposure by adding 50 μL of a 40% (w/v) trichloroacetic acid (TCA) solution so as to obtain a final TCA concentration of 10% in each well. The plates were left in the refrigerator (4° C.) for 1 hour and subsequently rinsed 3 times in tap water. Any excess water was left to drain and the cells were stained with 50 μL of 0.4% (w/v) sulforhodamine B (SRB). The plates with the SRB stain were left in the dark for 30 minutes. Excess stain was removed from the wells by rinsing the plates 4 times in water containing 1% (v/v) acetic acid. The stain was solubilised by adding 100 μL of 10 mM unbuffered Tris (pH 10.5) to each well and the plates were left in a shaker in a dark environment at room temperature for at least 1 hour. The absorbance values of the wells were determined by an ELx 808 Absorbance Microplate Reader (Bio-Tek Instruments, Winooski, Vt., USA), with the wavelength of the measurement filter set at 490 nm and a reference filter set at 450 nm. The absorbance of the reference filter was subtracted from the measurement filter to obtain a final absorbance of λ490-450 nm. The absorbance data was analysed and IC50 values determined by the KC4 microplate data analysis software (KC4™ V3.4, Bio-Tek).
Anti-proliferative IC50 assays were repeated as described above including the addition of 3 μM SN34037, a selective and potent small molecule inhibitor of AKR1C3.
Materials and methods used are as described for Example 9.

[3] = NCI-H460, read-out: H460-WT +AKR1C3 Inhibitor Anti-proliferative IC50
[4] = NCI-H460, read-out: H460-WT Anti-proliferative IC50

SMILES	Km [1]	kcat [1]	IC50 [2, 3]	IC50 [2, 4]	more cytotoxic in H460 cells than SN33540 [2]	more cytotoxic in H460 cells than SN34118 [2]	more cytotoxic in H460 cells than SN34454 [2]
CN1CCN(C(=O)c2cc([N+](=O)[O-])ccc2N(CCBr)CCBr)CC1 [SN34118, reference compound]	9 µM	18.7 s⁻¹	28.9 µM	1.56 µM	–	–	–
CN1CCN(S(=O)(=O)c2cc([N+](=O)[O-])ccc2N(CCOS(C)(=O)=O)CCOS(C)(=O)=O)CC1 [Compound 641, ((2-((4-methylpiperazin-1-yl)sulfonyl)-4-nitrophenyl)azanediyl)bis(ethane-2,1-diyl) dimethanesulfonate]	21.5 µM	–	5.86 µM	0.003 µM	179 fold	520 fold	135 fold
O=[N+]([O-])c1ccc(N(CCBr)CCBr)c(S(=O)(=O)N2CCN(CC(O)CO)CC2)c1 (stereo not shown) [Compound 566, 3-(4-((2-(bis(2-bromoethyl)amino)-5-nitrophenyl)sulfonyl)piperazin-1-yl)propane-1,2-diol]	32.2 µM	67.1 s⁻¹	4.03 µM	0.004 µM	–	–	–
CS(=O)(=O)OCCN(CCBr)c1c(C(=O)NCCO)cc([N+](=O)[O-])cc1[N+](=O)[O-] [PR-104A, 2-((2-bromoethyl)(2-((2-hydroxyethyl)-carbamoyl)-4,6-dinitrophenyl)amino)ethyl methanesulfonate, reference compound]	72.9 µM	18.7 s⁻¹	50 µM	2.7 µM	–	–	–
CS(=O)(=O)OCCN(CCBr)c1ccc([N+](=O)[O-])cc1S(=O)(=O)N1CCN(CC(O)CO)CC1 (stereo not shown) [Compound 605, 2-((2-bromoethyl)(2-((4-(2,3-dihydroxypropyl)piperazin-1-yl)sulfonyl)-4-nitrophenyl)amino)ethyl methanesulfonate]	17.1 µM	–	7.8 µM	0.025 µM	–	–	–
CN1CCN(C(=O)c2cc([N+](=O)[O-])ccc2N(CCBr)CCOS(C)(=O)=O)CC1 [SN34454, reference compound]	–	5.2 s⁻¹	46 µM	0.406 µM	–	–	–
CN1CCN(S(=O)(=O)c2cc([N+](=O)[O-])ccc2N(CCBr)CCOS(C)(=O)=O)CC1 [Compound 602, 2-((2-bromoethyl)(2-((4-methylpiperazin-1-yl)sulfonyl)-4-nitrophenyl)amino)ethyl methanesulfonate]	33.1 µM	–	4.19 µM	0.004 µM	–	–	102 fold

— patent US11661404B2, “Prodrug compounds activated by AKR1C3 and their use for treating hyperproliferative disorders” (priority 2018, dated 2023)
